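Each compound was tested at five concentrations against cells in 96-well plates for 48 hours. GI50 is the concentration that inhibits growth by half. TGI: concentration producing complete growth inhibition.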
Key:
Assay in all cases: NCI anticancer screen, dose series, 48 h
CAKI-1 renal = test system: CAKI-1 renal
DU-145 prostate = test system: DU-145 prostate
K-562 leukemia = test system: K-562 leukemia
M14 melanoma = test system: M14 melanoma
MALME-3M melanoma = test system: MALME-3M melanoma
NCI/ADR-RES ovarian = test system: NCI/ADR-RES ovarian
OVCAR-3 ovarian = test system: OVCAR-3 ovarian
OVCAR-8 ovarian = test system: OVCAR-8 ovarian
SF-268 CNS = test system: SF-268 CNS
UO-31 renal = test system: UO-31 renal

SMILES	TGI (CAKI-1 renal)	TGI (DU-145 prostate)	TGI (K-562 leukemia)	TGI (M14 melanoma)	TGI (MALME-3M melanoma)	TGI (NCI/ADR-RES ovarian)	TGI (OVCAR-3 ovarian)	TGI (OVCAR-8 ovarian)	TGI (SF-268 CNS)	TGI (UO-31 renal)	GI50 (CAKI-1 renal)	GI50 (DU-145 prostate)	GI50 (K-562 leukemia)	GI50 (M14 melanoma)	GI50 (MALME-3M melanoma)	GI50 (NCI/ADR-RES ovarian)	GI50 (OVCAR-3 ovarian)	GI50 (OVCAR-8 ovarian)	GI50 (SF-268 CNS)	GI50 (UO-31 renal)
O=C(O)C(C(=O)O)P(=S)(S)c1ccccc1 (stereo not given)	> 100 µM	> 100 µM	> 100 µM	> 100 µM	> 100 µM	> 100 µM	> 100 µM	> 100 µM	> 100 µM	> 100 µM										
Cc1ccc(-c2cc3c4c(nc5ccccc53)C(=O)c3cccnc3-c4n2)cc1	> 100 µM	24.5 µM	> 100 µM	16.5 µM	32.6 µM	49.7 µM	> 50.1 µM	37.6 µM	61.1 µM	> 82.6 µM	29.7 µM	11.9 µM	0.39 µM	4.37 µM	17.8 µM	14.3 µM	1.85 µM	11.4 µM	17 µM	17.1 µM
Clc1ccc(Nc2ccnc(N3CCN(c4ccnc5cc(Cl)ccc45)CC3)n2)cc1	15.6 µM	31.6 µM	7.94 µM	4.16 µM	9.82 µM	7.83 µM	9.87 µM	21.3 µM	16.2 µM	5.61 µM	2.47 µM	4.8 µM	2.56 µM	1.77 µM	2.32 µM	2.68 µM	2.93 µM	3.15 µM	3.33 µM	1.28 µM
CCCCCCn1c(-c2ccc(C(=O)O/N=C(\N)c3ccc4ccccc4c3)cc2)nc(-c2ccccc2)c1-c1ccccc1	55.1 µM	> 100 µM	> 100 µM	> 100 µM	> 100 µM	> 100 µM	> 100 µM	> 100 µM	> 100 µM	> 100 µM	2.65 µM	> 100 µM	2.42 µM	> 83.5 µM	> 49.9 µM	3.02 µM	> 100 µM	> 96.3 µM	6.71 µM	2.17 µM
C[C@]12CC[C@@H]3c4cc(O)c(O)cc4CC[C@H]3[C@@H]1CC[C@@H]2O	> 88.9 µM	> 100 µM	> 100 µM	> 100 µM	44.4 µM	> 45.4 µM	> 31.3 µM	> 100 µM	> 83.2 µM	77.8 µM	3.83 µM	4.46 µM	0.499 µM	1.35 µM	0.708 µM	1.3 µM	2.77 µM	6.89 µM	5.81 µM	5.68 µM
COc1cc(-c2oc3c(OC)cc(OC)c(O)c3c(=O)c2OC)cc(OC)c1OC	> 100 µM	> 100 µM	> 100 µM	> 100 µM	> 100 µM	> 100 µM	> 100 µM	32.7 µM	> 100 µM	> 100 µM										
Cc1ccc(NC(=O)c2cc3ccccc3c(N=Nc3cc(S(=O)(=O)O)ccc3O)c2O)c(C)c1	> 100 µM	> 100 µM	> 100 µM	37.4 µM	63.8 µM	> 100 µM	> 100 µM	> 100 µM	> 100 µM	34.1 µM										

Source: PubChem BioAssay (NCI)
